# From patent US8883841B2, “Oncogenic ras-specific cytotoxic compound and methods of use thereof” (The Board of Regents of the University of Texas System, priority 2005, dated 2014)
# Read-outs that look alike come from different tables or passages of the source.
# Experiments:
# T-47D = assay: NCI in-vitro testing, T-47D (Breast Cancer)
# DU-145 = assay: NCI in-vitro testing, DU-145 (Prostate Cancer)
# COLO 205 = assay: NCI in-vitro testing, COLO 205 (Colon Cancer)
# UACC-62 = assay: NCI in-vitro testing, UACC-62 (Melanoma)
# SKOV3 = assay: Cell viability, SKOV3 ovary cancer cells; assay type: cell-based; conditions: Homo sapiens, SK-OV-3
# HL-60(TB) = assay: NCI in-vitro testing, HL-60(TB) (Leukemia)
# BT-549 = assay: NCI in-vitro testing, BT-549 (Breast Cancer)
# SNB-75 = assay: NCI in-vitro testing, SNB-75 (CNS Cancer)
# Sw620 = assay: Cell viability, Sw620 colon cancer cells; assay type: cell-based, human; conditions: Homo sapiens, SW-620; Sw620, Colon; read-out: IC50 (−LogM) (converted)
# MOLT-4 = assay: NCI in-vitro testing, MOLT-4 (Leukemia)
# SF-268 = assay: NCI in-vitro testing, SF-268 (CNS Cancer)
# RXF 393 = assay: NCI in-vitro testing, RXF 393 (Renal Cancer)
# M14 = assay: NCI in-vitro testing, M14 (Melanoma)
# MALME-3M = assay: NCI in-vitro testing, MALME-3M (Melanoma)
# OVCAR-3 = assay: NCI in-vitro testing, OVCAR-3 (Ovarian Cancer)
# SF-539 = assay: NCI in-vitro testing, SF-539 (CNS Cancer)
smiles,measurement,setting,value
"OCc1cn(Cc2ccc(Cl)cc2)c2ccccc12 [Oncrasin K060, 1H-Indole-3-methanol, 1-[(4-chlorophenyl)methyl]-]",GI50,"T-47D; Homo sapiens, T47D",0.0267 µM
same,CC50,"T-47D; Homo sapiens, T47D, read-out: LC50",> 100 µM
same,GI50,"T-47D; Homo sapiens, T47D, read-out: Log10 GI50 (converted)",0.0269 µM
same,TGI,T-47D; T-47D,4.23E−7 Molar
same,Percent Growth,"T-47D; T-47D, Log10 Concentration −4.0 Molar",−14%
same,Percent Growth,"T-47D; T-47D, Log10 Concentration −5.0 Molar",−16%
same,Percent Growth,"T-47D; T-47D, Log10 Concentration −6.0 Molar",−12%
same,Percent Growth,"T-47D; T-47D, Log10 Concentration −7.0 Molar",20%
same,Percent Growth,"T-47D; T-47D, Log10 Concentration −8.0 Molar",73%
same,TGI,DU-145; DU-145,2.78E−5 Molar
same,Percent Growth,"DU-145; DU-145, Log10 Concentration −4.0 Molar",−53%
same,Percent Growth,"DU-145; DU-145, Log10 Concentration −5.0 Molar",42%
same,Percent Growth,"DU-145; DU-145, Log10 Concentration −6.0 Molar",96%
same,Percent Growth,"DU-145; DU-145, Log10 Concentration −7.0 Molar",105%
same,Percent Growth,"DU-145; DU-145, Log10 Concentration −8.0 Molar",108%
same,GI50,"DU-145; Homo sapiens, DU-145",7.25 µM
same,CC50,"DU-145; Homo sapiens, DU-145, read-out: LC50",93.3 µM
same,GI50,"DU-145; Homo sapiens, DU-145, read-out: Log10 GI50 (converted)",7.24 µM
same,TGI,COLO 205; COLO 205,1.58E−5 Molar
same,Percent Growth,"COLO 205; COLO 205, Log10 Concentration −4.0 Molar",−72%
same,Percent Growth,"COLO 205; COLO 205, Log10 Concentration −5.0 Molar",18%
same,Percent Growth,"COLO 205; COLO 205, Log10 Concentration −6.0 Molar",61%
same,Percent Growth,"COLO 205; COLO 205, Log10 Concentration −7.0 Molar",93%
same,Percent Growth,"COLO 205; COLO 205, Log10 Concentration −8.0 Molar",98%
same,GI50,"COLO 205; Homo sapiens, COLO 205",1.05 µM
same,CC50,"COLO 205; Homo sapiens, COLO 205, read-out: LC50",56.9 µM
same,GI50,"COLO 205; Homo sapiens, COLO 205, read-out: Log10 GI50 (converted)",1.05 µM
same,GI50,"UACC-62; Homo sapiens, UACC-62",0.0451 µM
same,CC50,"UACC-62; Homo sapiens, UACC-62, read-out: LC50",11.4 µM
same,GI50,"UACC-62; Homo sapiens, UACC-62, read-out: Log10 GI50 (converted)",0.0447 µM
same,TGI,UACC-62; UACC-62,8.97E−7 Molar
same,Percent Growth,"UACC-62; UACC-62, Log10 Concentration −4.0 Molar",−94%
same,Percent Growth,"UACC-62; UACC-62, Log10 Concentration −5.0 Molar",−47%
same,Percent Growth,"UACC-62; UACC-62, Log10 Concentration −6.0 Molar",−2%
same,Percent Growth,"UACC-62; UACC-62, Log10 Concentration −7.0 Molar",35%
same,Percent Growth,"UACC-62; UACC-62, Log10 Concentration −8.0 Molar",79%
same,IC50,SKOV3,0.631 µM
same,TGI,HL-60(TB); HL-60(TB),1.28E−5 Molar
same,Percent Growth,"HL-60(TB); HL-60(TB), Log10 Concentration −4.0 Molar",−78%
same,Percent Growth,"HL-60(TB); HL-60(TB), Log10 Concentration −5.0 Molar",9%
same,Percent Growth,"HL-60(TB); HL-60(TB), Log10 Concentration −6.0 Molar",89%
same,Percent Growth,"HL-60(TB); HL-60(TB), Log10 Concentration −7.0 Molar",85%
same,Percent Growth,"HL-60(TB); HL-60(TB), Log10 Concentration −8.0 Molar",95%
same,GI50,"HL-60(TB); Homo sapiens, HL-60",2.1 µM
same,CC50,"HL-60(TB); Homo sapiens, HL-60, read-out: LC50",4.31 µM
same,GI50,"HL-60(TB); Homo sapiens, HL-60, read-out: Log10 GI50 (converted)",2.09 µM
same,TGI,BT-549; BT-549,1.73E−5 Molar
same,Percent Growth,"BT-549; BT-549, Log10 Concentration −4.0 Molar",−85%
same,Percent Growth,"BT-549; BT-549, Log10 Concentration −5.0 Molar",26%
same,Percent Growth,"BT-549; BT-549, Log10 Concentration −6.0 Molar",97%
same,Percent Growth,"BT-549; BT-549, Log10 Concentration −7.0 Molar",118%
same,Percent Growth,"BT-549; BT-549, Log10 Concentration −8.0 Molar",110%
same,GI50,"BT-549; Homo sapiens, BT-549",4.62 µM
same,CC50,"BT-549; Homo sapiens, BT-549, read-out: LC50",4.88 µM
same,GI50,"BT-549; Homo sapiens, BT-549, read-out: Log10 GI50 (converted)",4.57 µM
same,GI50,"SNB-75; Homo sapiens, SNB-75",76.4 µM
same,CC50,"SNB-75; Homo sapiens, SNB-75, read-out: LC50",62.8 µM
same,GI50,"SNB-75; Homo sapiens, SNB-75, read-out: Log10 GI50 (converted)",7.59 µM
same,TGI,SNB-75; SNB-75,2.31E−5 Molar
same,Percent Growth,"SNB-75; SNB-75, Log10 Concentration −4.0 Molar",−73%
same,Percent Growth,"SNB-75; SNB-75, Log10 Concentration −5.0 Molar",42%
same,Percent Growth,"SNB-75; SNB-75, Log10 Concentration −6.0 Molar",112%
same,Percent Growth,"SNB-75; SNB-75, Log10 Concentration −7.0 Molar",119%
same,Percent Growth,"SNB-75; SNB-75, Log10 Concentration −8.0 Molar",118%
same,IC50,Sw620,5.01 µM
same,GI50,"MOLT-4; Homo sapiens, MOLT-4",17.7 µM
same,CC50,"MOLT-4; Homo sapiens, MOLT-4, read-out: LC50",82.8 µM
same,GI50,"MOLT-4; Homo sapiens, MOLT-4, read-out: Log10 GI50 (converted)",17.8 µM
same,TGI,MOLT-4; MOLT-4,3.82E−5 Molar
same,Percent Growth,"MOLT-4; MOLT-4, Log10 Concentration −4.0 Molar",−62%
same,Percent Growth,"MOLT-4; MOLT-4, Log10 Concentration −5.0 Molar",87%
same,Percent Growth,"MOLT-4; MOLT-4, Log10 Concentration −6.0 Molar",109%
same,Percent Growth,"MOLT-4; MOLT-4, Log10 Concentration −7.0 Molar",102%
same,Percent Growth,"MOLT-4; MOLT-4, Log10 Concentration −8.0 Molar",114%
same,GI50,"SF-268; Homo sapiens, SF-268",12.4 µM
same,CC50,"SF-268; Homo sapiens, SF-268, read-out: LC50",> 100 µM
same,GI50,"SF-268; Homo sapiens, SF-268, read-out: Log10 GI50 (converted)",12.3 µM
same,TGI,SF-268; SF-268,4.58E−5 Molar
same,Percent Growth,"SF-268; SF-268, Log10 Concentration −4.0 Molar",−30%
same,Percent Growth,"SF-268; SF-268, Log10 Concentration −5.0 Molar",56%
same,Percent Growth,"SF-268; SF-268, Log10 Concentration −6.0 Molar",94%
same,Percent Growth,"SF-268; SF-268, Log10 Concentration −7.0 Molar",98%
same,Percent Growth,"SF-268; SF-268, Log10 Concentration −8.0 Molar",106%
same,GI50,"RXF 393; Homo sapiens, RXF 393",< 0.01 µM
same,CC50,"RXF 393; Homo sapiens, RXF 393, read-out: LC50",23.2 µM
same,GI50,"RXF 393; Homo sapiens, RXF 393, read-out: Log10 GI50 (converted)",< 0.01 µM
same,TGI,RXF 393; RXF 393,2.44E−7 Molar
same,Percent Growth,"RXF 393; RXF 393, Log10 Concentration −4.0 Molar",−85%
same,Percent Growth,"RXF 393; RXF 393, Log10 Concentration −5.0 Molar",−30%
same,Percent Growth,"RXF 393; RXF 393, Log10 Concentration −6.0 Molar",−12%
same,Percent Growth,"RXF 393; RXF 393, Log10 Concentration −7.0 Molar",7%
same,Percent Growth,"RXF 393; RXF 393, Log10 Concentration −8.0 Molar",31%
same,GI50,"M14; Homo sapiens, M14",6.16 µM
same,CC50,"M14; Homo sapiens, M14, read-out: LC50",55.9 µM
same,GI50,"M14; Homo sapiens, M14, read-out: Log10 GI50 (converted)",5.13 µM
same,TGI,M14; M14,2.03E−5 Molar
same,Percent Growth,"M14; M14, Log10 Concentration −4.0 Molar",−79%
same,Percent Growth,"M14; M14, Log10 Concentration −5.0 Molar",35%
same,Percent Growth,"M14; M14, Log10 Concentration −6.0 Molar",87%
same,Percent Growth,"M14; M14, Log10 Concentration −7.0 Molar",94%
same,Percent Growth,"M14; M14, Log10 Concentration −8.0 Molar",95%
same,GI50,"MALME-3M; Homo sapiens, Malme-3M",51.7 µM
same,CC50,"MALME-3M; Homo sapiens, Malme-3M, read-out: LC50",82 µM
same,GI50,"MALME-3M; Homo sapiens, Malme-3M, read-out: Log10 GI50 (converted)",5.13 µM
same,TGI,MALME-3M; MALME-3M,2.37E−5 Molar
same,Percent Growth,"MALME-3M; MALME-3M, Log10 Concentration −4.0 Molar",−58%
same,Percent Growth,"MALME-3M; MALME-3M, Log10 Concentration −5.0 Molar",35%
same,Percent Growth,"MALME-3M; MALME-3M, Log10 Concentration −6.0 Molar",88%
same,Percent Growth,"MALME-3M; MALME-3M, Log10 Concentration −7.0 Molar",114%
same,Percent Growth,"MALME-3M; MALME-3M, Log10 Concentration −8.0 Molar",105%
same,GI50,"OVCAR-3; Homo sapiens, OVCAR-3",0.569 µM
same,CC50,"OVCAR-3; Homo sapiens, OVCAR-3, read-out: LC50",69.1 µM
same,GI50,"OVCAR-3; Homo sapiens, OVCAR-3, read-out: Log10 GI50 (converted)",0.575 µM
same,TGI,OVCAR-3; OVCAR-3,1.03E−5 Molar
same,Percent Growth,"OVCAR-3; OVCAR-3, Log10 Concentration −4.0 Molar",−60%
same,Percent Growth,"OVCAR-3; OVCAR-3, Log10 Concentration −5.0 Molar",1%
same,Percent Growth,"OVCAR-3; OVCAR-3, Log10 Concentration −6.0 Molar",42%
same,Percent Growth,"OVCAR-3; OVCAR-3, Log10 Concentration −7.0 Molar",77%
same,Percent Growth,"OVCAR-3; OVCAR-3, Log10 Concentration −8.0 Molar",95%
same,GI50,"SF-539; Homo sapiens, SF-539",10.9 µM
same,CC50,"SF-539; Homo sapiens, SF-539, read-out: LC50",60 µM
same,GI50,"SF-539; Homo sapiens, SF-539, read-out: Log10 GI50 (converted)",11 µM
same,TGI,SF-539; SF-539,2.70E−5 Molar
same,Percent Growth,"SF-539; SF-539, Log10 Concentration −4.0 Molar",−73%
same,Percent Growth,"SF-539; SF-539, Log10 Concentration −5.0 Molar",55%
same,Percent Growth,"SF-539; SF-539, Log10 Concentration −6.0 Molar",104%
same,Percent Growth,"SF-539; SF-539, Log10 Concentration −7.0 Molar",110%
same,Percent Growth,"SF-539; SF-539, Log10 Concentration −8.0 Molar",108%
